Results from US9173875B2, “Treatment for nicotine-induced lung disease using peroxisome proliferator-activated receptor gamma agonists” (Los Angeles Biomedical Research Institute at Harbor-UCLA …, priority 2006, dated 2015).
Where two headings read alike, the source gives them in different places.

How the values were obtained:
WI38 cells [1] = test: Western blot of lipogenic and myogenic marker proteins in WI38 cells (nicotine with or without lipogenic pathway agonists); assay type: cell-based, human; details: nicotine 1×10^−9, 7 days
Procedure: (§1) The human embryonic cell line WI38 was obtained from American Type Culture Collection (Rockville, Md.). Cells were grown in MEM plus 10% FBS at 37° C. in six-well plates, four-well slides, and 60- and 100-mm culture dishes as needed.
Western blotting was performed with modifications of methods described previously (Ayad and Wong (1998) Crit. Care Med 26: 1277-1282). […] Equal amounts of the protein (25 μg) from the supernatant were dissolved in electrophoresis sample buffer and were subjected to SDS-PAGE (4-12% gradient) followed by electrophoretic transfer to a nitrocellulose membrane. Nonspecific binding of antibody was blocked by washing with Tris-buffered saline (TBS) containing 5% milk for 1 h. The blot was then subjected to two brief washes with TBS plus 0.5% Tween 20, incubated in TBS plus 0.1% Tween 20 and the specific primary antibodies (PPAR 1:2,000, Alexis Biochemicals, San Diego, Calif.; -SMA 1:50,000, Sigma; ADRP 1:3,000, a kind gift from Dr. Constantine Londos, National Institute of Diabetes and Digestive and Kidney Diseases) overnight at 4° C. Blots were then washed in TBS plus 0.1% Tween 20 and then incubated for 1 h in secondary antibody, washed, and developed with a chemiluminescent substrate (ECL; Amersham, Arlington Heights, Ill.) following the manufacturer's protocol.

whole lung tissue = details: nicotine 2 mg/kg i.p. once daily to dam, e6 to e20
WI38 cells [2] = test: Reversal of nicotine-induced LIF-to-MYF transdifferentiation in WI38 cells, Western analysis
Procedure: The human embryonic cell line WI38 was obtained from the American Type Culture Collection (Rockville, Md.). Cells were grown in minimum essential medium (MEM) +10% fetal bovine serum at 37° C. in six-well plates, two well slides, and 60-mm and 100-mm culture dishes, as needed. […] Subsequently, the cells were treated with rosiglitazone (RGZ) (1×10^−5 M) (a PPARγ agonist), PTHrP (5×10^−7 M), or DBcAMP (1×10^−5 M) for 7 days, and the expression of PTHrP receptor, PPARγ, ADRP, calponin, and cSMA was determined by Western analysis and immunohistochemistry. Simultaneously, fibroblast function was characterized by measuring their capacity to take up triglycerides. Some experiments were performed in the presence of a specific PPARγ antagonist, GW9662. Medium containing fresh chemicals was added daily, and at the end of the experimental period the cells were processed as needed.
For Western blotting, cells were lysed using an extraction buffer [10 mM tris (hydroxymethyl) aminomethane (Tris, pH 7.5), 0.25 M sucrose, 1 mM EDTA, 5 mM benzamidine, 2 mM phenylmethylsulfonyl fluoride, and 10 (j.tg/ml each of pepstatin A, aprotinin, and leupeptin], and centrifuged at 140 g for 10 min (4° C.). Equal amounts of the protein (25 μg) from the supernatant were dissolved in electrophoresis sample buffer and were subjected to sodium dodecyl sulfate-polyacrylamide (4%-12% gradient) gel electrophoresis (SDS-PAGE) followed by electrophoretic transfer to a nitrocellulose memane. The nonspecific binding of antibody was blocked by washing with Tris-buffered saline (TBS) containing 0.1% Tween 20 (TBST) and 5% milk for 1 h. The blot was then subjected to two brief washes with TBST plus 0.5% Tween 20, incubated in TBST plus 0.1% Tween 20 and the specific primary antibodies (PPARγ 1:2000, Alexis Biochemicals, San Diego, Calif.; cSMA 1:50,000, Sigma, St. Louis, Mo.: ADRP 1:3000) overnight at 4° C. Blots were then washed in TBST plus 0.1% Tween 20 and then incubated for 1 h in secondary antibody, washed, and developed with a chemiluminescent substrate [enhanced chemiluminescence (ECL); Amersham, Arlington Heights, Ill.] following the manufacturer's protocol. The densities of the specific protein bands were quantified using a scanning densitometer (Eagle Eye II still video system, Stratagene, La Jolla, Calif.).

WI38 cells [3] = test: Triglyceride uptake assay ([3H]triolein) in WI38 cells; assay type: cell-based, human
Procedure: as §1
The method used to quantitate triglyceride uptake by fetal rat lung fibroblasts has been described previously (Torday et al. (1995) Biochim Biophys Acta 1254: 198-206). Briefly, culture medium was replaced with DMEM containing 20% adult rat serum mixed with [3H]triolein (5 μCi/ml). The cells were incubated at 37° C. in 5% CO2+balance air for 4 h. At the termination of the incubation, the medium was decanted, the cells were rinsed twice with 1 ml of ice-cold MEM, and the cells were removed from the culture plate after a 5- to 10-min incubation with 2 ml of a 0.05% trypsin solution. An aliquot of the cell suspension was taken for protein assay (Bradford (1976) Anal Biochem 72: 248-254), and the remaining cell suspension was extracted for neutral lipid content.

WI38 cells [4] = details: 7 days, vs control; for change in PTHrP receptor mRNA expression: means±SE
WI38 cells [5] = system: WI38 cells
Procedure: Lipogenic and myogenic status of cultured WI38 cells was assessed by simultaneous staining for lipid droplets and -SMA. Lipids were stained using oil red 0 staining, and -SMA expression was assessed by using anti-SMA (cat. no. A2547, 1:1,000, mouse monoclonal IgG2, Sigma) primary antibody. […] At the end of the experimental period, slides were fixed in freshly prepared 4% paraformaldehyde. Fixed slides were washed in PBS, blocked with 3% normal goat serum (Jackson Immunoresearch Lab) in PBS for 30 min at room temperature to block nonspecific binding, and then incubated in primary antibody overnight at 4° C. Secondary biotinylated anti-mouse IgG2 was used at 1:200 dilution for 30 min. The slides were then washed 3× with PBS and with double-distilled water 2× and were then incubated with oil red 0 (Sigma) for 15-30 min. Slides were rinsed 3× for 5 min and then mounted and coverslipped with Vestashield mounting medium with 4′,6′-diamidino-2-phenylindole (Vector Laboratories) visualization under a fluorescence microscope.

fetal ATII cells = test: Ex vivo ATII cell proliferation assay (tetrazolium dye) after in utero nicotine; set-up: species or system Sprague-Dawley rat; details: nicotine 1 mg/kg in utero; vs control, P<0.05, n=6
Procedure: Pathogen-free timed (embryonic day 0=day of mating) pregnant Sprague-Dawley rats (200-250 g body wt) were obtained from Charles River (Hollister, Calif.) at embryonic day 3 and allowed to acclimatize until embryonic day 6. […] The fetuses were extracted by cesarean section, and the lungs were snap frozen for later analysis or processed for ATII cell or fibroblast culture. […] Louis, Mo.; 0.25 mg/kg). All studies were approved by the Los Angeles Biomedical Research Institute Institutional Review Board and were conducted in accordance with the National Institutes of Health Guide for the Care and Use of Laboratory Animals. ATII cells were isolated using differential adherence in monolayer culture, as described previously (Battenburg et al. (1990) Biochim. Biophys. Acta 960: 441-456). Briefly, three to five […] used per preparation. The fetuses were delivered via cesarean section, and fetal lungs were placed in Hanks' balanced salt solution without calcium and magnesium. […] A Teflon stirring bar was used to further dissociate the lungs by mechanical disruption of the tissue during incubation in a 37° C. water bath. After the tissue was dispersed into a unicellular suspension, the cells were pelleted at 500 g for 10 min at room temperature in a 50-ml polystyrene centrifuge tube. […] The cell suspension was then added to 75-cm^2 (T-75) culture flasks for 30-60 min to allow for differential adherence of lung fibroblasts. The unattached cells were then transferred to another T-75 culture flask for an additional 60 min. After this second culture period, the medium and nonadherent cells were removed from the flask and diluted with 1 vol of culture medium. This diluted suspension was cultured overnight in a T-75 culture flask at 37° C. in a CO2 incubator to allow the ATII cells to adhere. […] According to the manufacturer's protocol, cell proliferation was determined by the tetrazolium dye assay, which is based on the conversion of a tetrazolium salt to a red formazan product by living cells (Cell Proliferation Assay, Promega).

[6] = 7d nicotine-only group, 7 days after nicotine 10^−9 M
[7] = nicotine 1×10^6 M (so in the source)

CN1CCCC1c1cccnc1 (stereo not drawn) [nicotine]
change in ADRP protein level (WI38 cells [1]): −20±3% | change in PPAR protein level (WI38 cells [1]): −24±2% | change in PTHrP receptor protein level (WI38 cells [1]): −31±7% | change in α-SMA protein level (WI38 cells [1]): +100±5% | αSMA mRNA expression in whole lung (whole lung tissue): significant increase | PTHrP receptor, PPARγ and ADRP mRNA expression in whole lung (whole lung tissue; vs controls, p<0.05): significant decrease | αSMA expression vs untreated controls (WI38 cells [2]; 7 days after stopping nicotine (Example 3)): significantly higher | expression of PTHrP receptor, PPARγ and ADRP vs untreated controls (WI38 cells [2]; [6]): significantly lower | expression of αSMA and calponin vs untreated controls (WI38 cells [2]; [6]): significantly higher | PTHrP receptor expression vs untreated controls (WI38 cells [2]; nicotine 10^−9 M 7 days, then 7 days without nicotine (Example 3)): significantly lower | expression of αSMA and calponin (WI38 cells [2]; nicotine 7 days, p<0.001 vs control, n=3): significant increases | expression of PTHrP receptor, PPARγ and ADRP (WI38 cells [2]; nicotine 7 days, vs control, n=3): significant decreases | decrease in triglyceride uptake (WI38 cells [3]; nicotine 1×10^−9 M for 24 h): ~30% | decrease in triglyceride uptake (WI38 cells [3]; nicotine 1×10^−9 M for 7 days): ~50% | change in PTHrP receptor mRNA expression (WI38 cells [4]; [7]): 40±3% | change in ADRP mRNA expression (WI38 cells [4]; [7]): −47±4% | change in PPAR mRNA expression (WI38 cells [4]; [7]): −37±3% | change in α-SMA mRNA expression (WI38 cells [4]; [7]): +140±5% | change in PTHrP receptor mRNA expression (WI38 cells [4]; nicotine 1×10^−9 M): −33±8% | change in ADRP mRNA expression (WI38 cells [4]; nicotine 1×10^−9 M): −41±8% | change in PPAR mRNA expression (WI38 cells [4]; nicotine 1×10^−9 M): −26±7% | change in α-SMA mRNA expression (WI38 cells [4]; nicotine 1×10^−9 M): +38±4% | lipid droplet and α-SMA staining (WI38 cells [5]): decreased lipid staining and increased -SMA staining | ATII cell proliferation, tetrazolium dye assay (fetal ATII cells): almost twofold increase
